Measured values: patent publication US10780096B2, “Pyrrolobenzodiazepine-antibody conjugates” (priority 2014, dated 2020)
Like-named read-outs stand apart in the source and are kept apart here.

Assays:
[1] = target: T1, human CD25 (Homo sapiens, UniProt P01589); test: Flow cytometry binding of ADCT-301-FITC on concanavalin-A activated CD25-positive human PBMCs; settings: CD25-PE gate
T1 construct: endogenous in cells
T1 sequence (P01589 22-272): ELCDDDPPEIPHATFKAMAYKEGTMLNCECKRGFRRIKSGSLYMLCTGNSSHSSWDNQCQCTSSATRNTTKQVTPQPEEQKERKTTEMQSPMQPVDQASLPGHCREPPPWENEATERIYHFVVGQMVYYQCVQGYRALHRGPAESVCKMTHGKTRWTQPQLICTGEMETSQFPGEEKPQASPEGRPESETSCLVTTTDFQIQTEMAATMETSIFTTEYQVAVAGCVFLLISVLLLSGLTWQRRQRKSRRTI
Procedure: FIG. 1. Affinity of ADCT-301 for human CD25 as determined by flow cytometry on concanavalin-A activated CD25-positive human PBMCs. ADCT-301-FITC binding was assessed in a CD25-PE (phycoerythrin) gate across the dilution series by measuring median fluorescent intensity (MFI) in channel FL1H. Isotype, non-targeting-ADC-FITC was used as the non-binding ADC control.
Relative binding affinity of ADCT-301 was measured by flow cytometry on Concanavalin A-activated CD25-positive lymphocytes. Surface plasmon resonance (SPR, Biacore) was used to measure binding affinity and binding kinetics of HuMax®-TAC and ADCT-301 on recombinant sCD25 ectodomain attached to a gold surface.

[2] = tested on: Daudi; test: MTS cell proliferation assay, in vitro cytotoxicity; type: cell-based; settings: Burkitt's lymphoma, CD25 negative, 96 hours
Procedure: (§1) FIG. 2. In vitro cytotoxicity of ADCT-301 on six lymphoma cell lines as measured by the MTS cell proliferation assay. Cells were incubated with increasing concentrations of ADCT-301 for 96 hours. Data is presented as the mean±SD
(§2) Cell surface protein copy number of CD25 and CD30 was determined on various lymphoma cell lines by flow cytometric Qifikit® assay. Cytotoxicity of ADCT-301 on these cell lines was determined by cell proliferation assay (MTS) to determine whether there is a correlation between CD25 copy number and in vitro cytotoxic potency.

[3] = tested on: HDLM-2; test: as above; type: cell-based; settings: HDLM-2, Hodgkin's lymphoma, CD25 expressing, 96 hours
Procedure: as §1, §2

[4] = tested on: HuT 78; test: as above; type: cell-based; settings: HuT 78, cutaneous T cell lymphoma, CD25 negative, 96 hours
Procedure: as §1, §2

[5] = tested on: Karpas 299; test: as above; type: cell-based; settings: Karpas 299, anaplastic large cell lymphoma, CD25 expressing, 96 hours
Procedure: as §1, §2

[6] = tested on: L540; test: as above; type: cell-based; settings: L540, Hodgkin's lymphoma, CD25 expressing, 96 hours
Procedure: as §1, §2

[7] = tested on: SU-DHL-1; test: as above; type: cell-based; settings: SU-DHL-1, anaplastic large cell lymphoma, CD25 expressing, 96 hours
Procedure: as §1, §2

[8] = tested on: CD25-negative Ramos cells; test: Bystander effect in co-culture of Karpas 299 and Ramos cells, flow cytometry; type: cell-based, human; settings: 96 hour exposure, co-culture with CD25-positive Karpas 299, compared to Ramos cultured alone
Procedure: FIG. 3. […] The histogram depicts the percentage of viable populations of cells as measured by flow cytometry.
Readout was Karpas 299 and Ramos cell numbers and the viability of these cells both of which were determined by flow cytometry.
Ramos cells are human B lymphocytes of Burkitt's lymphoma.

[9] = tested on: CD25-negative Ramos cells; settings: second culture 96 hrs
Procedure: FIG. 5. […] Data is presented as the mean±SD.
In these experiments, an first 48 hr culture of either (A) CD25-negative cells Ramos cells, or (B) CD25-positive Karpas 299, with ADCT-301 was performed. When this first culture was complete, the culture was centrifuged and 50 μl of the supernatant media transferred to 50 μl of a freshly prepared culture of either (A) CD25-negative cells Ramos cells, or (B) CD25-positive Karpas 299. This second culture was performed for 96 hrs, then cytotoxicity assessed by the MTS assay.

[10] = tested on: CD25-positive SuDHL-1 cells; test: Cytotoxicity on CD25-positive SuDHL-1 cells, cleavable vs non-cleavable linker; type: cell-based; settings: direct treatment of CD25-positive SuDHL-1 cells
[11] = tested on: CD25-negative Burkitt lymphoma Ramos cells; test: Conditioned media transfer from SuDHL-1 culture to Ramos cells, MTS assay; type: cell-based, human; settings: media conditioned by 48 hr culture of CD25-positive SuDHL-1 cells; second culture 96 hrs
Procedure: FIG. 6. Comparison of CD25−ve bystander cytotoxicity observed with cleavable vs. non-cleavable linkers by in vitro conditioned media transfer. […] The error bars indicate % cell viability±SD of 3 independent repeats
The effect of linker cleavablility was investigated in conditioned media transfer experiments. In these experiments, a first 48 hr culture CD25-positive SuDHL-1 cells was performed with either (1) of ADCT-301 (cleavable linker), or (2)NC-1 (composed of the recombinant human IgG1, HuMax®-TAC against human CD25 attached to a pyrrolobenzodiazepine PBD warhead with non-cleavable linker according to the alternative aspect of the disclosure).

ADCT-301: recombinant human IgG1, HuMax-TAC against human CD25 attached to a pyrrolobenzodiazepine PBD warhead, cleavable linker; drug-antibody ratio 2.3±0.3; HuMax-TAC-E of WO2014/57119
EC50 (affinity for human CD25, median fluorescent intensity) [1]: ≈ 0.03 μg/ml | GI50 [2]: > 10 nM | Mean GI50 [2]: >>150 ng/ml | GI50 [3]: 0.0511 nM | Mean GI50 [3]: 7.67 ng/mL | GI50 [4]: > 10 nM | Mean GI50 [4]: >>150 ng/ml | GI50 [5]: 0.0365 nM | Mean GI50 [5]: 5.47 ng/mL | GI50 [6]: 0.0216 nM | Mean GI50 [6]: 3.25 ng/mL | GI50 [7]: 0.0165 nM | Mean GI50 [7]: 2.48 ng/mL | Bystander killing of Ramos cells in co-culture [8]: specific bystander killing of Ramos cells | Cytotoxicity to Ramos cells of conditioned media ([9]; media conditioned by 48 hr culture of CD25+ve Karpas299 cells): potent cytotoxicity | Cytotoxicity to Ramos cells of conditioned media ([9]; media conditioned by 48 hr culture of CD25-ve Ramos cells): does not lead to any observable increase in cytoxicity | Sensitivity of SuDHL-1 cells to treatment [10]: equally sensitive | Cytotoxicity to Ramos cells of conditioned media [11]: shows cytotoxicity of CD25-negative Burkitt lymphoma Ramos cells
